Measurements: patent US20250270173A1, “PYRIDINE DERIVATIVES FOR TREATING PSYCHIATRIC DISORDERS” (GILGAMESH PHARMACEUTICALS, INC., priority 2022, published 2025)
pEC50, pKi: −log10 of the molar value. Where two headings read alike, the source gives them in different places.

Legend:
human 5-HT2C receptor = human 5-HT2C receptor (Homo sapiens (Human), UniProt P28335); test: FLIPR Ca2+ flux functional assay at 5-HT2C (Eurofins DiscoverX); type: cell-based; conditions: Ca2+ flux, human 5-HT2C; for 5-HT2C % Act @ Max Conc.: at max concentration; for pEC50: read-out: 5-HT2C EC50
human 5-HT2C receptor, sequence (P28335 whole entry, looked up): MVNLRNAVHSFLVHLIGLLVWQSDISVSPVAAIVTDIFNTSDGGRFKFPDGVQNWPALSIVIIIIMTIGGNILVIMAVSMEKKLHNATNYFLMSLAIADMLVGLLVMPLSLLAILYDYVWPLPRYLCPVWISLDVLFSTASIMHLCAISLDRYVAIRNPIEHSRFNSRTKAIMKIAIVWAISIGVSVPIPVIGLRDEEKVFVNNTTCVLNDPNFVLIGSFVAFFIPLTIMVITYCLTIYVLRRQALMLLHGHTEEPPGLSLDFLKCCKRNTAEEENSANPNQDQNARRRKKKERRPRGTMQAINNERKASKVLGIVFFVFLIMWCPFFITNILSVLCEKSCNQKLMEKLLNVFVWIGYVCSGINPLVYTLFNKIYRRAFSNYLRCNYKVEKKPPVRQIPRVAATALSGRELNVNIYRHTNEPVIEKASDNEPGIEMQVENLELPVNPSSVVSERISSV
Description: Functional Assays at 5-HT2C Receptors. […] Probenecid was prepared fresh. Cells were loaded with dye prior to testing and incubated at 37° C. for 30-60 minutes. After dye loading, cells were removed from the incubator and 10 μL HBSS/20 mM Hepes was added. 3× vehicle was included in the assay buffer. Cells were incubated for 30 mins at room temperature in the dark to equilibrate plate temperature. Intermediate dilution of sample stocks was performed to generate 4× sample in assay buffer. Compound agonist activity was measured on a FLIPR Tetra (MDS). Calcium mobilization was monitored for 2 minutes and 10 μL 4× sample in HBSS/20 mM Hepes was added to the cells 5 seconds into the assay.

5-HT2A receptor [1] = molecular target: T1, 5-HT2A receptor (Homo sapiens (Human), UniProt P28223); test: FLIPR Ca2+ flux functional assay at 5-HT2A (HEK293); conditions: for 5-HT2A % Act @ Max Conc.: HEK293, at max concentration
5-HT2B receptor = 5-HT2B receptor (Homo sapiens (Human), UniProt P41595); test: FLIPR Ca2+ flux functional assay at 5-HT2B (HEK293); conditions: for 5-HT2B % Act @ Max Conc.: HEK293, at max concentration
5-HT2B receptor, sequence (P41595 whole entry, looked up): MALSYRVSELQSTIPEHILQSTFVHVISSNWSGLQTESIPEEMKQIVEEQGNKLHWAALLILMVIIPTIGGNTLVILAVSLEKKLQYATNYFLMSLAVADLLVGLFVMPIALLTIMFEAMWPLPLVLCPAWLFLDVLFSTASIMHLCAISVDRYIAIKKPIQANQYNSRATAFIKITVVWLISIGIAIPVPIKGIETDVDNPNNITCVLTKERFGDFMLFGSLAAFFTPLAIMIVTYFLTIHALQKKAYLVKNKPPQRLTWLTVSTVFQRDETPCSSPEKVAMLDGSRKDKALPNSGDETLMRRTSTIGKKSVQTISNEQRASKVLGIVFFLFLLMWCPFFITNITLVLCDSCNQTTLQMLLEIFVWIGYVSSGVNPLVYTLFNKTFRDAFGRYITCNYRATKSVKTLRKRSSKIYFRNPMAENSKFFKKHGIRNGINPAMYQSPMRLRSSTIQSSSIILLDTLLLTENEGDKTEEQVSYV

5-HT1A receptor = 5-HT1A receptor (Homo sapiens (Human), UniProt P08908); test: FLIPR Ca2+ flux functional assay at 5-HT1A (CHO cells); conditions: for 5-HT1A % Act @ Max Conc.: at max concentration
5-HT2A receptor [2] = molecular target: T1, 5-HT2A receptor; test: 5-HT2A receptor radioligand binding with [3H]ketanserin; conditions: for Ki: read-out: Ki at 5-HT2A Receptor (nM) ([3H]ketanserin), HEK293 stable cell line, 1 nM [3H]ketanserin, 1 h, 25 °C
C57BL/6 mice = test: Automated (video tracking) head twitch response (HTR) assay in mice; type: in vivo; conditions: SC; for ED50: Mus musculus, 20 min, 20 min recording, read-out: ED50; for Most Efficacious Dose; mg/kg: dose giving the most HTR
Description: Disclosed compounds were tested for their ability to induce a head twitch response (HTR) in mice using an automated video tracking procedure, with the results summarized in Table 5. […] The phenyl Compound 44 was substantially more efficacious at inducing HTR than its pyridine counterpart Compound 29, in agreement with the generally lower maximal efficacy of the disclosed pyridine compounds for signaling through 5-HT2A receptors.
Animals. Adult male C57BL/6 mice aged 8-10 weeks (body weight 20-25 g) were used in these experiments. Animals were housed under controlled temperatures and 12-hour light/dark cycles (lights on between 07:00-19:00 h), with ad libitum food and water. The protocol was approved by the Institutional Animal Care and Use Committee at the study site. This study was carried out in strict accordance with the recommendations in the Guide for the Care and Use of Laboratory Animals of the National Institutes of Health. All efforts were made to minimize suffering.
Drugs and Drug Administration. […] was commercially obtained. Disclosed compounds were synthesized as described above. They were administered subcutaneously (SC) dissolved in saline (or saline acidified with 1-2 molar equivalents HCl to form the salt in situ for freebase compounds) at a volume of 10 mL/kg. Five doses were tested, with N=5-8 animals/group. Doses were calculated on the basis of the freebase, except for DOI, which was calculated based on the HCl salt.
Procedure. Mice were administered one dose of the drug and immediately placed into a small open field for behavioral observation. High-speed video of animals' behavior was captured continuously for 20 min. Video recordings were imported into an image processing software, which detects multiple points of interest on each animal's body, including the left and right ear. HTR events were defined as periodic deviations of ear locations from temporally averaged ear locations. Predefined thresholds for magnitude and frequency of location deviations were used to filter […] events from random head movements. The method was validated by comparing detected events with manual (human) observations and found to have an accuracy >95%. The total number of HTR events counted during the 20-min recording were determined for each animal at each dose.
Statistical Analysis. Analysis was performed using GraphPad Prism 9. Dose-response curves were fit via non-linear regression using the Gaussian 2020 function in Prism in order to determine the ED50 and Emax for each compound.

[3] = read-out: 5-HT2A EC50, Ca2+ flux, HEK293
[4] = read-out: 5-HT2B EC50, Ca2+ flux, HEK293
[5] = read-out: 5-HT1A EC50, Ca2+ flux, CHO cells

Compound | 5-HT2C % Act @ Max Conc. (human 5-HT2C receptor) [%] | pEC50 (human 5-HT2C receptor) | 5-HT2A % Act @ Max Conc. (5-HT2A receptor [1]; Ca2+ flux) [%] | pEC50 (5-HT2A receptor [1]; [3]) | 5-HT2B % Act @ Max Conc. (5-HT2B receptor; Ca2+ flux) [%] | pEC50 (5-HT2B receptor; [4]) | 5-HT1A % Act @ Max Conc. (5-HT1A receptor; Ca2+ flux, CHO cells) [%] | pEC50 (5-HT1A receptor; [5]) | Ki (5-HT2A receptor [2]) [nM] | pEC50 (5-HT2A receptor [1]) | pEC50 (5-HT2B receptor) | pEC50 (5-HT1A receptor) | ED50 (C57BL/6 mice) [mg/kg] | Emax (HTR counts/20 min) (C57BL/6 mice) | # HTR/20 min at Most Efficacious Dose (C57BL/6 mice) [HTR/20 min] | Most Efficacious Dose; mg/kg (C57BL/6 mice) | pKi (5-HT2A receptor [2])
COc1cc(C(F)(F)F)c(OC)cc1CCN [Compound 2C-TFM, 2C-TFM, reference compound] | 88.2 | 9.23 | 81.5 | 8.98 | 82.0 | 7.79 | −0.647 | < 5.00 | 15.8 | – | – | – | – | – | – | – | –
CCCCCc1cc(OC)c(CC(C)N)nc1OC (centres unmarked) [Compound 4, 1-(3,6-dimethoxy-5-pentylpyridin-2-yl)propan-2-amine] | – | – | 132.71 | – | 14.53 | – | 67.31 | – | 26.2 | 7.81 | < 5.00 | 4.32 | – | – | – | – | –
CCCCCc1cc(OC)c(CCN)nc1OC [Compound 7, 2-(3,6-dimethoxy-5-pentylpyridin-2-yl)ethan-1-amine] | 92.53 | 7.79 | 82.88 | – | 11.56 | – | 61.95 | – | 6.32 | 7.70 | < 5.00 | 4.28 | 4.88 | 24.61 | 23.25 | (1) mg/kg | –
COc1cc(Cl)c(OC)nc1CCN [Compound 16, 2-(5-chloro-3,6-dimethoxypyridin-2-yl)ethan-1-amine] | – | – | 97.33 | – | 38.95 | – | 5.31 | – | 264 | 7.70 | 5.86 | < 4.00 | – | – | – | – | –
COc1cc(Cl)c(OC)nc1CC(C)N (centres unmarked) [Compound 17, 1-(5-chloro-3,6-dimethoxypyridin-2-yl)propan-2-amine] | – | – | 99.4 | – | 70.03 | – | 0.79 | – | 404 | 8.20 | 6.27 | < 4.00 | – | – | – | – | –
CCc1cc(OC)c(CCN)nc1OC [Compound 19, 2-(5-ethyl-3,6-dimethoxypyridin-2-yl)ethan-1-amine] | – | – | 96.03 | – | 20.07 | – | 1.25 | – | 111 | 7.69 | 6.66 | 4.92 | – | – | – | – | –
CCc1cc(OC)c(CC(C)N)nc1OC (centres unmarked) [Compound 20, 1-(5-ethyl-3,6-dimethoxypyridin-2-yl)propan-2-amine] | – | – | 98.11 | – | 75.75 | – | 0.9 | – | 322 | 8.24 | 6.53 | < 4.00 | – | – | – | – | –
COc1ccccc1CNCCc1nc(OC)c(Br)cc1OC [Compound 25, 2-(5-bromo-3,6-dimethoxypyridin-2-yl)-N-(2-methoxybenzyl)ethan-1-amine] | – | – | 93.57 | – | 8.22 | – | 21.35 | – | 0.35 | 8.80 | < 5.00 | < 4.00 | – | – | – | – | –
COc1cc(CCNCc2ccccc2OC)c(OC)cc1C [Compound 25D-NBOMe, 25D-NBOMe, reference compound] | 91.5 | > 9.29 | 97.5 | 9.60 | 43.3 | 8.90 | −4.43 | < 5.00 | 2.52 | – | – | – | – | – | – | – | –
COc1cc(C2CC2)c(OC)nc1CC(C)N (centres unmarked) [Compound 27, 1-(5-cyclopropyl-3,6-dimethoxypyridin-2-yl)propan-2-amine] | – | – | 104.13 | – | 61.18 | – | 0.49 | – | 304 | 7.82 | 6.61 | < 4.00 | – | – | – | – | –
COc1cc(CCCCCC(F)(F)F)c(OC)nc1CCN [Compound 30, 2-(3,6-dimethoxy-5-(6,6,6-trifluorohexyl)pyridin-2-yl)ethan-1-amine] | – | – | 73.21 | – | 23.14 | – | 55.61 | – | 6.01 | 7.19 | 5.78 | 4.04 | 5.87 | 16.80 | 17.5 | (3.2) mg/kg | –
CCCCc1cc(OC)c(CCN)nc1OC [Compound 31, 2-(5-butyl-3,6-dimethoxypyridin-2-yl)ethan-1-amine] | – | – | 90.63 | – | 7.29 | – | 21.32 | – | 19.7 | 8.10 | < 5.00 | < 4.00 | 1.29 | 43.42 | 43.38 | (3.2) mg/kg | –
COc1cc(CCCCF)c(OC)nc1CCN [Compound 32, 2-(5-(4-fluorobutyl)-3,6-dimethoxypyridin-2-yl)ethan-1-amine] | 99.77 | 7.64 | 81.86 | – | −0.69 | – | 0.5 | – | 103 | 7.68 | < 5.00 | < 4.00 | – | – | – | – | –
COc1cc(CCCC(F)(F)F)c(OC)nc1CCN [Compound 33, 2-(3,6-dimethoxy-5-(4,4,4-trifluorobutyl)pyridin-2-yl)ethan-1-amine] | – | – | 68.5 | – | 1.05 | – | 10.46 | – | 104 | 7.34 | < 5.00 | < 4.00 | – | – | – | – | –
COc1cc(CCCCCF)c(OC)nc1CCN [Compound 34, 2-(5-(5-fluoropentyl)-3,6-dimethoxypyridin-2-yl)ethan-1-amine] | – | – | 64.66 | – | 7.93 | – | 4.8 | – | 10.2 | 7.87 | < 5.00 | < 4.00 | – | – | – | – | –
COc1cc(CCCCC(F)(F)F)c(OC)nc1CCN [Compound 35, 2-(3,6-dimethoxy-5-(5,5,5-trifluoropentyl)pyridin-2-yl)ethan-1-amine] | – | – | 48.95 | – | 32.44 | – | 41.47 | – | – | 7.41 | 6.47 | < 4.00 | – | – | – | – | 7.87
CCCc1cc(OC)c(CCN)nc1OC [Compound 36, 2-(3,6-dimethoxy-5-propylpyridin-2-yl)ethan-1-amine] | – | – | 88.19 | – | 21.53 | – | 3.03 | – | 35.4 | 8.38 | 6.74 | < 4.00 | 0.972 | 48.79 | 48.12 | (10) mg/kg | –
CCCCCCc1cc(OC)c(CC(C)N)nc1OC (centres unmarked) [Compound 38, 1-(5-hexyl-3,6-dimethoxypyridin-2-yl)propan-2-amine] | 79.49 | 6.80 | 83.97 | – | 4.76 | – | 123.88 | – | 3.1 | 7.94 | < 5.00 | 4.24 | – | – | – | – | –
